Measured values reported in patent publication US20130130238A1, “Fluorimetric Process for Evaluating the Influence of A Condition on A Biological Sample and Applications Thereof” (NOVALEADS, priority 2008, published 2013).

What was measured:
Assay type in all cases: cell-based
HeLa cells [1] = assay: Kinetic profile of SYTO62 fluorescence under continuous illumination, HeLa cells treated with anticancer agent; conditions: 0.1 μM and 1 μM, 24 hours, 10 μM SYTO62, illumination 50 seconds at 488 nm
Description: The intensity of fluorescence is then measured every second. Each intensity value is then expressed as a percentage of the first fluorescence value measured. (IF: intensity of fluorescence; T: illumination time). HeLa cells (Sigma-Aldrich) are plated into a 96-well format transparent-bottomed black microplate at 20000 cells per well the day before the experiment. […] The intensity of fluorescence emitted by the biosensor is then measured every second.

HepG2 cells = assay: Kinetic profile of SYTO13 fluorescence under continuous illumination, HepG2 cells treated with okadaic acid; conditions: 0.01, 0.031, 0.1, 0.31 and 1 μM, 24 hours, 2 μM final SYTO13, illumination 20 seconds at 488 nm
Description: The cells were then labelled with a solution of SYTO13 of 2 μM final concentration then subjected to continuous illumination for 20 seconds. The intensity of fluorescence is then measured every 0.4 seconds. Each intensity value is then expressed as a percentage of the first fluorescence value measured. (IF: intensity of fluorescence; T: illumination time).
HepG2 cells (ATCC) are plated into a 96-well format transparent-bottomed black microplate at 20000 cells per well two days before the experiment. The day before the test the cells are or are not treated with 75 μl of 0.01, 0.031, 0.1, 0.31 and 1 μM solutions of okadaic acid (Sigma-Aldrich). The cells are incubated for 24 hours.
On the day of the test, the cells are labelled for 30 minutes at 37° C. with 25 μl of an 8 μM solution of SYTO13 (Invitrogen) (i.e. 2 μM final) prepared in MEM culture medium (Invitrogen).
The samples are placed under a fluorescence microscope at ×100 magnification then subjected to continuous illumination at 488 nm with a mercury lamp for 20 seconds. The intensity of fluorescence emitted by the biosensor is then measured every 0.4 seconds.

HeLa cells [2] = assay: Kinetic profile of SYTO13 or SYTO15 fluorescence under continuous illumination, HeLa cells treated with apoptogenic agent; conditions: 1 μM, 7 hours
Description: HeLa cells were treated for 7 hours with (∘, Δ) or without ([…], ▴) 1 μM staurosporine. The cells were then labelled with a 10 μM solution of SYTO13 (Δ, ▴) or SYTO15 (∘, […]) then subjected to continuous illumination for 300 seconds. The intensity of fluorescence is then measured every 5 seconds. Each intensity value is then expressed as a percentage of the first fluorescence value measured. (IF: intensity of fluorescence; T: illumination time).
HeLa cells (Sigma-Aldrich) are plated into a 96-well format transparent-bottomed black microplate at 20000 cells per well the day before the experiment. On the day of the test the cells are or are not treated with 1 μM of staurosporine for 7 hours. The cells are then labelled for 20 minutes with 50 μl of a 10 μM solution of SYTO13 (Invitrogen) or SYTO15 (Invitrogen) prepared in buffer A.
The labelled cells are placed under a fluorescence reader of the Varioskan type (Thermo Electron Corporation) equipped with a Xenon Flash lamp. The samples labelled with SYTO13 and SYTO15 are then subjected for 300 seconds to continuous illumination at 488 nm and 516 nm respectively. The fluorescence intensities emitted by these biosensors are then measured every 5 seconds.

HeLa cells [3] = assay: Kinetic profile of SYTO62 fluorescence under continuous illumination, HeLa cells treated with apoptotic agent; conditions: 7 hours, 10 μM SYTO62, illumination 40 seconds at 488 nm
Description: HeLa cells were treated for 7 hours with (Δ, □, ⋄) or without (∘) 0.1 μM (Δ), 0.5 μM (□) and 1 μM (⋄) staurosporine. The cells were then labelled with a 10 μM solution of SYTO62 then subjected to continuous illumination for 40 seconds. The intensity of fluorescence is then measured every second. Each intensity value is then expressed as a percentage of the first fluorescence value measured. (IF: intensity of fluorescence; T: illumination time). HeLa cells (Sigma-Aldrich) are plated into a 96-well format transparent-bottomed black microplate at 20000 cells per well the day before the experiment. On the day of the test the cells are or are not treated with 0.1, 0.5 and 1 μM of staurosporine (Sigma-Aldrich) for 7 hours. The cells are then labelled for 20 minutes with 50 μl of a 10 μM solution of SYTO62 (Invitrogen) prepared in a buffer containing 25 mM Hepes, 140 mM NaCl, 1 mM EDTA and 0.1% bovine serum albumin (BSA), pH 7.4 (buffer A). The samples are placed under a fluorescence microscope (Leica DMIRB) at ×100 magnification then subjected to continuous illumination at 488 nm with a mercury lamp (HBO […]/2) for 40 seconds. The intensity of fluorescence emitted by the biosensor is then measured every second.

CC(=O)O[C@H]1C(=O)[C@@]2(C)[C@H]([C@H](OC(=O)c3ccccc3)[C@]3(O)C[C@H](OC(=O)[C@H](O)[C@@H](NC(=O)c4ccccc4)c4ccccc4)C(C)=C1C3(C)C)[C@]1(OC(C)=O)CO[C@@H]1C[C@@H]2O [Taxol, Paclitaxel]
variation in fluorescence measured under illumination (HeLa cells [1]): dose-dependent decrease in the variation in fluorescence

C=C1[C@@H](O)[C@@H]2O[C@]3(CC[C@H](/C=C/[C@@H](C)[C@@H]4CC(C)=C[C@@]5(O[C@H](C[C@@](C)(O)C(=O)O)CC[C@H]5O)O4)O3)CC[C@H]2O[C@@H]1[C@@H](O)C[C@H](C)[C@H]1O[C@@]2(CCCCO2)CC[C@H]1C [okadaic acid]
variation in fluorescence measured under illumination (HepG2 cells): dose-dependent decrease in the variation in fluorescence

CN[C@@H]1C[C@H]2O[C@@](C)([C@@H]1OC)n1c3ccccc3c3c4c(c5c6ccccc6n2c5c31)C(=O)NC4 [staurosporine]
increase in the fluorescence measured under continuous illumination (HeLa cells [2]; 10 μM SYTO13, illumination 300 seconds at 488 nm): does not induce an increase in the fluorescence measured | increase in the fluorescence measured under continuous illumination (HeLa cells [2]; 10 μM SYTO15, illumination 300 seconds at 516 nm): does not induce an increase in the fluorescence measured | increase in the intensity of fluorescence measured under continuous illumination (HeLa cells [3]; 0.1 μM): a weaker increase in fluorescence than in the untreated condition | increase in the intensity of fluorescence measured under continuous illumination (HeLa cells [3]; 0.5 μM): an increase in fluorescence is no longer measured | increase in the intensity of fluorescence measured under continuous illumination (HeLa cells [3]; 1 μM): an increase in fluorescence is no longer measured
